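Briefly, cells in 96-well plates were exposed to five compound concentrations for 48 h, and endpoints were estimated by linear interpolation. TGI: concentration producing complete growth inhibition.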
How the values were obtained:
Experiment in all cases: inhibition of tumour cell growth, NCI panel, 48 h
SK-MEL-2 melanoma = system: SK-MEL-2 melanoma
HOP-62 NSCLC = system: HOP-62 NSCLC
K-562 leukemia = system: K-562 leukemia
UACC-62 melanoma = system: UACC-62 melanoma
HL-60(TB) leukemia = system: HL-60(TB) leukemia
PC-3 prostate = system: PC-3 prostate
MCF7 breast = system: MCF7 breast
SK-MEL-5 melanoma = system: SK-MEL-5 melanoma
MDA-MB-435 = system: MDA-MB-435
RPMI-8226 leukemia = system: RPMI-8226 leukemia
LOX IMVI melanoma = system: LOX IMVI melanoma
A549 NSCLC = system: A549 NSCLC
OVCAR-8 ovarian = system: OVCAR-8 ovarian
SR leukemia = system: SR leukemia
NCI-H460 lung = system: NCI-H460 lung
HS 578T breast = system: HS 578T breast
BT-549 breast = system: BT-549 breast

SMILES	TGI (SK-MEL-2 melanoma)	TGI (HOP-62 NSCLC)	TGI (K-562 leukemia)	TGI (UACC-62 melanoma)	TGI (HL-60(TB) leukemia)	TGI (PC-3 prostate)	TGI (MCF7 breast)	TGI (SK-MEL-5 melanoma)	TGI (MDA-MB-435)	TGI (RPMI-8226 leukemia)	TGI (LOX IMVI melanoma)	TGI (A549 NSCLC)	TGI (OVCAR-8 ovarian)	TGI (SR leukemia)	TGI (NCI-H460 lung)	TGI (HS 578T breast)	TGI (BT-549 breast)
Cc1[nH]c(=O)nc2sc(=NC3CCCCC3)n(C3CCCCC3)c(=O)c12	> 100 µM	> 100 µM	> 100 µM	> 100 µM	> 100 µM	> 100 µM	> 100 µM	> 100 µM	> 100 µM	> 100 µM	> 100 µM	> 100 µM	> 100 µM				
COc1ccc(C2Oc3cc(OC)c(OC)cc3C2CCl)cc1OC (configuration not stated)	> 100 µM	> 100 µM	> 100 µM	79.5 µM	> 100 µM			> 100 µM		> 100 µM	> 100 µM	> 100 µM	> 100 µM	> 100 µM	> 100 µM		
COC(=O)c1cccc(C)c1C1CN=NC12Cc1cc(C)cc(C)c1C2=O (configuration not stated)		> 100 µM	> 100 µM		47.5 µM		> 100 µM	77 µM	66.1 µM	> 100 µM	> 100 µM	> 100 µM	> 100 µM	> 100 µM	> 100 µM	> 100 µM	
COc1cc(OCCN(C)C)c2[nH]c(C(=O)N3CC(CCl)c4ccc(N)cc43)cc2c1 (configuration not stated)	0.0933 µM	0.0507 µM	> 100 µM	0.567 µM		1.34 µM	0.133 µM	0.197 µM	0.281 µM	0.271 µM		> 34.3 µM		> 100 µM			
C/C(=N\NC(N)=S)c1ccc2c(c1)Sc1ccccc1O2	6.99 µM	29 µM	> 100 µM	12.3 µM	> 100 µM	28.8 µM		6.83 µM	0.95 µM	16.4 µM	13.1 µM	13.5 µM	7.16 µM	> 100 µM	11.8 µM	> 100 µM	
O=c1[nH]c(=O)c2c3n(cc2[nH]1)CCCCC3		> 100 µM	> 100 µM	> 100 µM	> 100 µM	> 100 µM	> 100 µM	> 100 µM	> 100 µM	> 100 µM	> 100 µM	> 100 µM	> 100 µM	> 100 µM	> 100 µM	> 100 µM	
CCOC(=O)/C(C#N)=C/c1coc2cc(C)cc(C)c2c1=O		> 100 µM	> 100 µM	> 100 µM	> 100 µM	> 100 µM		> 100 µM	> 100 µM	> 100 µM	> 100 µM	> 100 µM	> 100 µM	> 100 µM	> 100 µM	> 100 µM	> 100 µM
CCOC(=O)C12OC(OCC)(CC1(OCC)OCC)C1(CC1)C2=O (configuration not stated)	> 100 µM	> 100 µM	> 100 µM			> 100 µM	> 100 µM	> 100 µM	> 100 µM		> 100 µM	> 100 µM	> 100 µM		> 100 µM		> 100 µM
CCCC/C=C/C=C/C=C/CCCCCCCC(=O)OCC(COC(=O)CCCCCCC/C=C/C1C=CC(CCCC)C(C(=O)O)C1C(=O)O)OC(=O)CCCCCCC/C=C/C=C/C=C/CCCC (configuration not stated) (tested in a mixture with another compound)	29.5 µM	38.6 µM	44.2 µM	29.1 µM	41.1 µM			31.1 µM		15 µM	27.5 µM	37.1 µM	44.5 µM		> 100 µM		

Source: PubChem BioAssay (NCI)
